Results from US20240368230A1, “CELL-PENETRATING PEPTIDES COMPRISING MULTIPLE 5-MER ALPHA-HELIX FRAGMENTS AND USES THEREOF” (ArtProBio Co., Ltd., priority 2023, published 2024).
Where a SMILES comes first, the peptide text is derived from it.

Key:
[1] = CD spectroscopy of cell-penetrating peptides (helicity); conditions: for helicity ([θ]222/[θ]208): CD spectra
Procedure: The concentration of peptides/proteins was 5-20 μM in general. Spectra were obtained using a Jasco J-1500 CD spectrometer (JASCO, Japan) or a Chirascan CD spectrometer (Applied Photophysics, UK). Scanning was carried out using a cuvette with a path length of 1 mm. MRE (mean residue ellipticity) was calculated per amino acid residue.
The cell-penetrating peptides (CPP1 TO 13 and CPP11d) were dissolved respectively in 10 mM potassium phosphate. The analysis was performed under the condition of pH 7.4 and 20° C.

HeLa cells [2] = assay: Cytotoxicity analysis with WST-8 reagent; conditions: 24 hours, various concentrations
Procedure: Cytotoxicity was analyzed using the WST-8 (5-(2,4-disulfophenyl)-3-(2-methoxy-4-nitrophenyl)-2-(4-nitrophenyl)-2H-tetrazolium, water-soluble tetrazolium). First, HeLa cells were inoculated onto a 96-well plate (5,000 cells/well) and cultured for 24 hours in a DMEM medium containing 10% FBS. After washing with PBS, the peptide (sample) of various concentrations was added to Opti-MEM. 24 hours later, the WST-8 reagent was added and incubation was conducted for 1 hour. Then, WST-8 formazan was quantified using a Victor X5 multilabel plate reader (Perkin Elmer, USA).

HCT116 cells = assay: Flow cytometry cellular uptake efficiency, HCT116; type: cell-based; conditions: HCT116, 30 μM, FAM-labeled
Procedure: (§1) After washing with PBS, the cells were treated with the fluorescence-labeled peptide (sample) for 4 hours. Then, after washing twice with PBS, the cells were incubated with trypsin (1 mg/mL) for 15 minutes and the peptide bound to the cell surface was removed. The cells were centrifuged at 1,200 rpm for 5 minutes, washed twice with PBS and then suspended in a PBS buffer containing 10% non-enzymatic cell dissociation solution. The fluorescence intensity of the internalized peptide was measured using a BD LSR II flow cytometer (BD Biosciences, USA).
(§2) The cell-penetrating peptides (CPP10, CPP11 and Tat) were labeled with FAM (5 (6)-carboxyfluorescein) at the N-terminal. MFI stands for mean fluorescence intensity. Untreated cells were used as control groups (cell only). The cellular uptake efficiency refers to the degree of penetration into cells.

HeLa cells [3] = assay: Flow cytometry cellular uptake efficiency, HeLa; type: cell-based; conditions: HeLa, 30 μM, FAM-labeled
Procedure: as §1, §2
Flow cytometry was performed after treating Hela cells with the cell-penetrating peptide prepared in Example 11 (CPP11) of different concentrations (4 μM, 30 μM, 60 μM, 90 μM, 120 μM, 270 μM and 500 μM).

BALB/c nude mice = assay: In-vivo fluorescence imaging (IVIS) of living mice, targeting; conditions: for bioaccumulation / targeting activity in the body: comparison with existing CPPs
Procedure: All animal experimental procedures including sample administration and euthanasia were performed in accordance with the strict guidelines of the Yonsei University Health System Institutional Animal Care and Use Committee. Female 7-week BALB/c nude mice were purchased from Orient Bio Company (Korea). Fluorescence-labeled peptide (sample) (10 mg/kg) was injected via the lateral tail vein of the mice. Fluorescence images were acquired at different times (0, 4, 8 and 12 hours) using an in-vivo imaging system (IVIS; PerkinElmer, USA) and the images were analyzed with the Living Image software (PerkinElmer).
Female 7-week-old BALB/c nude mice were injected IV (intravenously) with the cell-penetrating peptide prepared in Example 10 (CPP10) at 10 mg/kg or 1 mg/kg via the lateral tail vein and imaged using IVIS (in-vivo imaging system) (PerkinElmer, USA) 4 hours later. The images were analyzed with the Living Image software (PerkinElmer). The mice were analyzed from the top, bottom (belly) and side positions (FIG. 44A). Then, after administering the same volume of the cell-penetrating peptide prepared in Example 10 (CPP10) at 10 mg/kg via IV (intravenous) or IP (intraperitoneal) injection, the mice were imaged 4 hours later (FIG. 44B).
Next, female 7-week-old BALB/c nude mice were injected IV (intravenously) with the cell-penetrating peptide of Example 10 (CPP10), the cell-penetrating peptide of Example 11 (CPP11) or the cell-penetrating peptide of Example 14 (CPP11d) at 10 mg/kg via the lateral tail vein, and they were imaged 30 minutes and 6 hours later using IVIS (in-vivo imaging system) (PerkinElmer, USA). The images were analyzed with the Living Image software (PerkinElmer) (FIG. 44C). In FIGS. 44A and 44B, the cell-penetrating peptides were labeled with TAMRA (5 (6)-carboxytetramethylrhodamine). In FIG. 44C, the cell-penetrating peptides were labeled with FAM.
The images were analyzed with the Living Image software (PerkinElmer) (FIGS. 50 and 51).
The cell-penetrating peptide prepared in Example 11 (CPP11) was also administered at the same concentration and then analyzed by IVIS 1 hour later (FIG. 51). The cell-penetrating peptide was used after labeling with FAM.
4 hours later, the mice were imaged using IVIS (in-vivo imaging system) (PerkinElmer, USA) and the images were analyzed with the Living Image software (PerkinElmer) (FIG. 53).
The cell-penetrating peptide prepared in Example 11 (CPP11) was also administered at the same concentration and then analyzed by IVIS 1 hour later (FIG. 53). The cell-penetrating peptide was used after labeling with FAM.
Female 7-week-old BALB/c nude mice were injected IV (intravenously) with 200 μL of the cell-penetrating peptide of Example 11 (CPP11) or the existing cell-penetrating peptides (Rev ARM, Tat, penetratin and R8) at 5 mg/kg via the lateral tail vein. 4 hours later, the mice were imaged using IVIS (in-vivo imaging system) (PerkinElmer, USA) and the images were analyzed with the Living Image software (PerkinElmer) (FIGS. 54 and 55). The cell-penetrating peptides were used after labeling with FAM.

293T cells = assay: Flow cytometry cellular uptake efficiency, 293T; type: cell-based; conditions: 30 μM, FAM-labeled
Procedure: as §1, §2

[4] = FAM-labeled, IV 5 mg/kg, 200 μL, 4 hours
[5] = FAM-labeled, IV 5 mg/kg, 4 hours

## C[C@H](NC(=O)[C@H](CCC(N)=O)NC(=O)C(C)(C)NC(=O)[C@H](C)NC(=O)C(C)(C)NC(=O)[C@H](CC(N)=O)NC(=O)[C@H](CCCNC(=N)N)NC(=O)[C@H](CCCNC(=N)N)NC(=O)[C@H](C)NC(=O)[C@H](CCC(N)=O)NC(=O)C(C)(C)NC(=O)[C@H](C)NC(=O)C(C)(C)NC(=O)[C@H](CC(N)=O)NC(=O)[C@H](CCCNC(=N)N)NC(=O)[C@H](CCCNC(=N)N)NC(=O)[C@H](C)NC(=O)[C@H](CCC(N)=O)NC(=O)C(C)(C)NC(=O)[C@H](C)NC(=O)C(C)(C)N)C(=O)N[C@@H](CCCNC(=N)N)C(=O)N[C@@H](CCCNC(=N)N)C(=O)N[C@@H](CC(N)=O)C(=O)NC(C)(C)C(=O)N[C@@H](C)C(=O)NC(C)(C)C(N)=O [CPP10] (HELM PEPTIDE1{[Aib].A.[Aib].Q.A.R.R.N.[Aib].A.[Aib].Q.A.R.R.N.[Aib].A.[Aib].Q.A.R.R.N.[Aib].A.[Aib].[am]}$$$$V2.0; N-terminus assumed)
[1]; 10 mM potassium phosphate, pH 7.4, 20° C.
  secondary structure / helix stabilization by CD: significantly higher than those of CPP8 and CPP9
HeLa cells [2]
  cytotoxicity (WST-8): hardly show cytotoxicity
HCT116 cells
  cell-penetrating ability compared with Tat: significantly superior
HeLa cells [3]
  cell-penetrating ability compared with Tat: significantly superior
BALB/c nude mice; FAM-labeled, IV 10 mg/kg, 30 minutes and 6 hours
  in-vivo targeting site: targeted the ear
BALB/c nude mice; TAMRA-labeled, 10 mg/kg, 4 hours
  targeting efficiency IV versus IP: higher targeting efficiency when administered by IV injection rather than by IP injection
BALB/c nude mice; TAMRA-labeled, IV tail vein, 10 mg/kg or 1 mg/kg, 4 hours
  in-vivo fluorescence distribution: bright fluorescence was observed in the ear
293T cells
  cell-penetrating ability compared with Tat: significantly superior

## C[C@H](NC(=O)[C@H](CCC(N)=O)NC(=O)C(C)(C)NC(=O)CNC(=O)C(C)(C)NC(=O)[C@H](CC(N)=O)NC(=O)[C@H](CCCNC(=N)N)NC(=O)[C@H](CCCNC(=N)N)NC(=O)[C@H](C)NC(=O)[C@H](CCC(N)=O)NC(=O)C(C)(C)NC(=O)[C@H](C)NC(=O)C(C)(C)NC(=O)[C@H](CC(N)=O)NC(=O)[C@H](CCCNC(=N)N)NC(=O)[C@H](CCCNC(=N)N)NC(=O)[C@H](C)NC(=O)[C@H](CCC(N)=O)NC(=O)C(C)(C)NC(=O)[C@H](C)NC(=O)C(C)(C)NC(=O)[C@H](CC(N)=O)NC(=O)[C@H](CCCNC(=N)N)NC(=O)[C@H](CCCNC(=N)N)NC(=O)[C@H](C)NC(=O)[C@H](CCC(N)=O)NC(=O)C(C)(C)NC(=O)[C@H](C)NC(=O)C(C)(C)N)C(=O)N[C@@H](CCCNC(=N)N)C(=O)N[C@@H](CCCNC(=N)N)C(=O)N[C@@H](CC(N)=O)C(=O)NC(C)(C)C(=O)N[C@@H](C)C(=O)NC(C)(C)C(N)=O [CPP19] (HELM PEPTIDE1{[Aib].A.[Aib].Q.A.R.R.N.[Aib].A.[Aib].Q.A.R.R.N.[Aib].A.[Aib].Q.A.R.R.N.[Aib].G.[Aib].Q.A.R.R.N.[Aib].A.[Aib].[am]}$$$$V2.0; N-terminus assumed)
[1]
  helicity ([θ]222/[θ]208): ≥ 0.7
[1]; listed as Example 20
  helicity ([θ]222/[θ]208): 0.706
BALB/c nude mice; [4]
  in-vivo targeting site: target the ear

## C[C@H](NC(=O)[C@H](CCC(N)=O)NC(=O)C(C)(C)NC(=O)CNC(=O)C(C)(C)NC(=O)[C@H](CC(N)=O)NC(=O)[C@H](CCCNC(=N)N)NC(=O)[C@H](CCCNC(=N)N)NC(=O)[C@H](C)NC(=O)[C@H](CCC(N)=O)NC(=O)C(C)(C)NC(=O)[C@H](C)NC(=O)C(C)(C)NC(=O)[C@H](CC(N)=O)NC(=O)[C@H](CCCNC(=N)N)NC(=O)[C@H](CCCNC(=N)N)NC(=O)[C@H](C)NC(=O)[C@H](CCC(N)=O)NC(=O)C(C)(C)NC(=O)[C@H](C)NC(=O)C(C)(C)N)C(=O)N[C@@H](CCCNC(=N)N)C(=O)N[C@@H](CCCNC(=N)N)C(=O)N[C@@H](CC(N)=O)C(=O)NC(C)(C)C(=O)NCC(=O)NC(C)(C)C(=O)N[C@@H](CCC(N)=O)C(=O)N[C@@H](C)C(=O)N[C@@H](CCCNC(=N)N)C(=O)N[C@@H](CCCNC(=N)N)C(=O)N[C@@H](CC(N)=O)C(=O)NC(C)(C)C(=O)N[C@@H](C)C(=O)NC(C)(C)C(N)=O [CPP20] (HELM PEPTIDE1{[Aib].A.[Aib].Q.A.R.R.N.[Aib].A.[Aib].Q.A.R.R.N.[Aib].G.[Aib].Q.A.R.R.N.[Aib].G.[Aib].Q.A.R.R.N.[Aib].A.[Aib].[am]}$$$$V2.0; N-terminus assumed)
[1]; listed as Example 21
  helicity ([θ]222/[θ]208): 0.565
BALB/c nude mice; [4]
  in-vivo targeting site: target the ear
BALB/c nude mice; FAM-labeled, IV 5 mg/kg, 4 hours, among CPP19 to 21
  accumulation efficiency in the ear: much superior accumulation efficiency in the ear

## C[C@H](NC(=O)[C@H](CCC(N)=O)NC(=O)C(C)(C)NC(=O)CNC(=O)C(C)(C)NC(=O)[C@H](CC(N)=O)NC(=O)[C@H](CCCNC(=N)N)NC(=O)[C@H](CCCNC(=N)N)NC(=O)[C@H](C)NC(=O)[C@H](CCC(N)=O)NC(=O)C(C)(C)NC(=O)CNC(=O)C(C)(C)NC(=O)[C@H](CC(N)=O)NC(=O)[C@H](CCCNC(=N)N)NC(=O)[C@H](CCCNC(=N)N)NC(=O)[C@H](C)NC(=O)[C@H](CCC(N)=O)NC(=O)C(C)(C)NC(=O)[C@H](C)NC(=O)C(C)(C)N)C(=O)N[C@@H](CCCNC(=N)N)C(=O)N[C@@H](CCCNC(=N)N)C(=O)N[C@@H](CC(N)=O)C(=O)NC(C)(C)C(=O)NCC(=O)NC(C)(C)C(=O)N[C@@H](CCC(N)=O)C(=O)N[C@@H](C)C(=O)N[C@@H](CCCNC(=N)N)C(=O)N[C@@H](CCCNC(=N)N)C(=O)N[C@@H](CC(N)=O)C(=O)NC(C)(C)C(=O)N[C@@H](C)C(=O)NC(C)(C)C(N)=O [CPP21] (HELM PEPTIDE1{[Aib].A.[Aib].Q.A.R.R.N.[Aib].G.[Aib].Q.A.R.R.N.[Aib].G.[Aib].Q.A.R.R.N.[Aib].G.[Aib].Q.A.R.R.N.[Aib].A.[Aib].[am]}$$$$V2.0; N-terminus assumed)
[1]; listed as Example 22
  helicity ([θ]222/[θ]208): 0.500
BALB/c nude mice; [4]
  in-vivo targeting site: target the ear

## N=C(N)NCCC[C@H](NC(=O)[C@H](CCCNC(=N)N)NC(=O)[C@H](CCCNC(=N)N)NC(=O)[C@H](CCC(N)=O)NC(=O)[C@H](CCCNC(=N)N)NC(=O)[C@H](CCCNC(=N)N)NC(=O)[C@H](CCCCN)NC(=O)[C@H](CCCCN)NC(=O)[C@H](CCCNC(=N)N)NC(=O)CNC(=O)[C@@H](N)Cc1ccc(O)cc1)C(N)=O [Tat, Tyr-Gly-Arg-Lys-Lys-Arg-Arg-Gln-Arg-Arg-Arg, reference compound]
BALB/c nude mice; [5]
  bioaccumulation: did not show significant bioaccumulation
  targeting activity in the body: did not show targeting activity for specific sites in the body

## RRRRRRRR [R8, reference compound]
BALB/c nude mice; [5]
  bioaccumulation: did not show significant bioaccumulation
  targeting activity in the body: did not show targeting activity for specific sites in the body

## TRQARRNRRRRWRERQR [Rev ARM, reference compound]
BALB/c nude mice; [5]
  bioaccumulation: did not show significant bioaccumulation
  targeting activity in the body: did not show targeting activity for specific sites in the body
